According to publication PMC9367672, “In vitro differences in toddalolactone metabolism in various species and its effect on cytochrome P450 expression” (Pharmaceutical Biology, 2022):

What was measured:
[1] = Enzyme kinetics of toddalolactone metabolism in mouse liver microsomes (oxidative metabolism); format: in vitro ADME; conditions: pH 7.4; MOMs (mouse liver microsomes); P450-catalyzed oxidation; P2 formation; Vmax/Km
Protocol: (§1) The CYP reaction system (200 μL) consisted of 0.1 M potassium phosphate buffer (pH 7.4), an NADPH-generating system (1 mM NADPH, 10 mM G-6-P, 1 unit/mL G-6-PD, 4 mM MgCl2), and liver microsomes or recombinant human microsomes (supersomes). Each of the in vitro enzymatic assays using liver microsomes was linear with respect to incubation time and amount of protein. After a pre-incubation at 37 °C for 3 min, the reactions were initiated by adding NADP^+. After incubating for 60 min, the reactions were quenched by adding 200 μL of ice-cold acetonitrile. Samples were centrifuged at 18,000 g for 15 min at 4 °C and 10 μL of supernatant was analyzed using an HPLC system. NADPH or CYP enzyme sources were not used in the control group to ensure that the metabolic reactions were CYP- and NADPH-dependent. All incubation assays were completed in triplicate. The data are presented as mean ± standard deviation (SD).
(§2) The enzyme kinetics of toddalolactone in oxidative metabolism and glucuronidation were determined by incubating liver microsomes (0.2 mg/mL) or CYPs (15 nM) with different concentrations of toddalolactone (1–200 μM). […] The in vitro intrinsic clearance (CLint) was calculated based on the Vmax/Km ratio. Metabolites were quantified using the standard curve for toddalolactone because of the absence of metabolite standards. […]
(§3) The enzyme kinetics in oxidative metabolism and glucuronidation of toddalolactone were studied, and preliminary experiments were performed to ensure that metabolites were formed in the linear range of both reaction time and microsomal protein concentration. […] Based on the results of toddalolactone metabolism in different species, the kinetic parameter values in RLMs, DLMs, MLMs, HLMs, RAMs, MIMs, PLMs, CYP1A1 and CYP3A5 were calculated using P4, P4, P4, P4, P2, P2, P4, P4 and P4 data in oxidative metabolism, respectively. In the glucuronidation reaction, the kinetic parameter values in RLMs, MLMs, HLMs, RAMs and PLMs were calculated using P5, P6, P6, P6 and P5 data, respectively.

MIMs = experiment: as above; format: in vitro ADME; conditions: MOMs (mouse liver microsomes), P450-catalyzed oxidation, P2 formation
Protocol: as §1, §2, §3

HLMs = experiment: Prediction of in vivo hepatic clearance in humans from HLM kinetics; format: in vitro ADME, human
Protocol: The in vivo hepatic clearances in oxidative metabolism and glucuronidation of toddalolactone were calculated using Equations (4)–(6) (Li et al. [2008]): (4) CLint in vitro=∑i=1nVmax(Mi)/Km(Mi) (5) CLint in vivo=CLint in vitro⋅SF (6) CLH=QH⋅fu⋅CLint in vivo/QH+fu⋅CLint in vivo where SF is the milligrams of microsomal protein per gram of liver multiplied by the grams of liver weight; CLH is hepatic clearance; fu is the unbound fraction in the blood (the value of fu was set to 1 due to the absence of available data for toddalolactone); QH is the blood flow in the liver; and Mi is the metabolite of toddalolacone. The physiological parameters to calculate intrinsic clearance were as follows. The liver weight of dogs, rats and humans were 32, 40 and 25.7 g/kg body weight, respectively; the content of microsomal protein was 77.9, 44.8 and 48.8 mg/g of liver; and the blood flow in the liver was 30.9, 55.2 and 20.7 mL/(min ⋅ kg), respectively (Naritomi et al. [2001]).

CYP3A5 = experiment: Western blot of CYP3A5 protein expression in HepG2 cells; format: cell-based; conditions: 0, 10 and 50 μM, 24 h
Protocol: Hep G2 cells were seeded into 100 mm Petri dishes and treated with different concentrations of toddalolactone (0, 10 and 50 µmol/L) for 24 h. Total protein was extracted using RIPA lysis buffer containing proteinase inhibitor (BestBio, Shanghai, China). After the protein concentration was measured using a bicinchoninic acid (BCA) assay kit (Beyotime, Shanghai, China), samples were electrophoretically transferred to polyvinylidene difluoride (PVDF) membranes. After blocking with TTBS (0.5% Tween 20, 10 mM Tris-HCl, pH 7.5, 150 mM NaCl) containing 5% non-fat milk for 1 h at room temperature, the membrane was incubated with antibodies against β-Actin, CYP1A1, and CYP3A5 overnight at 4 °C. Then, membranes were washed with TBS (10 mM Tris-HCl, pH 7.5, 150 mM NaCl) containing 0.05% Tween 20 three times and further incubated with HRP-conjugated secondary antibodies against rabbit (for β-actin, CYP1A1 and CYP3A5) for 1 h at room temperature.

CYP1A1 = molecular target: T1, CYP1A1 (Homo sapiens, UniProt P04798); experiment: Enzyme kinetics of toddalolactone metabolism by recombinant CYP1A1; conditions: recombinant CYP1A1 (15 nM); P4 formation
T1 sequence (P04798 1-512): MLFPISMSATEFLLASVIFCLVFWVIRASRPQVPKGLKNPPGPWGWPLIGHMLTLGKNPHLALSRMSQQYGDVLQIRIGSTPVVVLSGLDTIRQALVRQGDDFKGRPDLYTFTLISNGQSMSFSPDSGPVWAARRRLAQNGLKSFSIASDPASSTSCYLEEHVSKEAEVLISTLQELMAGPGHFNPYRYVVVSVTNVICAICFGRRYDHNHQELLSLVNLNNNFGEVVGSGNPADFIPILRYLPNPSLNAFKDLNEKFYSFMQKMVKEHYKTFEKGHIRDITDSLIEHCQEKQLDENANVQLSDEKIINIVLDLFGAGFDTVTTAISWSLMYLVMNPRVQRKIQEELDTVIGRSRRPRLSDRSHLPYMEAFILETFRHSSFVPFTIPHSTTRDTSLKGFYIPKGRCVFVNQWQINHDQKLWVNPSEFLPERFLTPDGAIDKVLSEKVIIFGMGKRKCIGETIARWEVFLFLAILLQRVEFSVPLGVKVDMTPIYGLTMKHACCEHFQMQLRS

COc1cc2oc(=O)ccc2c(OC)c1C[C@@H](O)C(C)(C)O [toddalolactone]
microsomal CLint [1]: 1.61 µL/min/mg | K m (MIMs): 146.32 ± 26.62 µM | V max (MIMs; toddalolactone 1–200 μM): 235.91 ± 22.75 pmol/min/mg protein | CLH versus hepatic blood flow (QH) (HLMs; HLMs): 8.68% | clearance class according to predicted CLH (HLMs; humans): low-clearance (low-clearance drugs (<30% liver blood flow)) | in vivo hepatic clearance (CLH) (HLMs; humans, predicted from kinetic parameters of P1–P6, fu set to 1): 5.25 mL/(min/kg body weight) | protein expression of CYP3A5 (CYP3A5): did not show any significant change | K m (CYP1A1): 60.12 ± 6.67 µM
